Data published in patent US20260132127A1, “NOVEL SPIRO COMPOUND” (MITSUBISHI TANABE PHARMA CORPORATION, priority 2021, published 2026).

biological target: T1, human TRH-DE (Homo sapiens, UniProt Q9UKU6); assay: TRH-DE inhibition test (RapidFire MS measurement of product Cyclo (His-Pro)); type: biochemical; details: membrane fraction of Expi 293 cells expressing human TRH-DE; 10 μM TRH substrate; room temperature, 2 hours; 16-point concentration test
T1 construct: expressed in transfected cells; host or cells: Expi 293 cells (transient expression), membrane fraction
T1 sequence (Q9UKU6 1-1069): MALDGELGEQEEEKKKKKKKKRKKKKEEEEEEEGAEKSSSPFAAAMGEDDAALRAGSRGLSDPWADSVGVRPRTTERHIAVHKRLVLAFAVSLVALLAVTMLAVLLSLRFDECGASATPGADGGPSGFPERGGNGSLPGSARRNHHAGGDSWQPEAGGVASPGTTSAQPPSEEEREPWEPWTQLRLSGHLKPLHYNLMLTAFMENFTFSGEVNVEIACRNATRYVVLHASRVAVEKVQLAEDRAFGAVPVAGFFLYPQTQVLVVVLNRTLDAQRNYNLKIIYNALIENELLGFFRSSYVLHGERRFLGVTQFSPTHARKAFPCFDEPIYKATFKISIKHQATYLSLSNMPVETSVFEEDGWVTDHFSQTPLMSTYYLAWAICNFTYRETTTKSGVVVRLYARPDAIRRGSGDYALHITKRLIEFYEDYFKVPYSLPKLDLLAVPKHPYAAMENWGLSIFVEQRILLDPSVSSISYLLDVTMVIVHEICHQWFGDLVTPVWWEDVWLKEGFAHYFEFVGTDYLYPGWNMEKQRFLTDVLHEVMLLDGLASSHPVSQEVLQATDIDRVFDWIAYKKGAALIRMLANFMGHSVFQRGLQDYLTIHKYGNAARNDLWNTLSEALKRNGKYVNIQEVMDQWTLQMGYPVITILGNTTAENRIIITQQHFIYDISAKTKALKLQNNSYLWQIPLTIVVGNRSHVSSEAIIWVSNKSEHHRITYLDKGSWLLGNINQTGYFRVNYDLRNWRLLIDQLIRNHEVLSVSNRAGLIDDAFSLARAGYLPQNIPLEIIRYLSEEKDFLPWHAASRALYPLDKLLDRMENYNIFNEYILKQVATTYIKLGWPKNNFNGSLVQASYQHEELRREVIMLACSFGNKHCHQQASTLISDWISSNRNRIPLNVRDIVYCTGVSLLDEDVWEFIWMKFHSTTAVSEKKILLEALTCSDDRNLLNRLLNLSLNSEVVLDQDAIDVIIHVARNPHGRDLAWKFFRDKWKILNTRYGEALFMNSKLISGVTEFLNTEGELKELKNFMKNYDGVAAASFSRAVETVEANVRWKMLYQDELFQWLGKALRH
In short: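 Membrane fraction from Expi 293 cells transiently expressing human TRH-DE, at 4 μg/ml in phosphate buffer pH 7.4 with 200 μM bacitracin, reacted with compound and 10 μM substrate for 2 h at room temperature. Cyclo(His-Pro) measured by RapidFire MS against an isotope internal standard. IC50 from 16-point curves.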

Row | IC50 | SMILES
1 | 2 nM | COc1cc2c(cn1)C(=O)N(C1CC3(C1)CN(S(=O)(=O)c1ccccc1F)C3)[C@H](C)CO2 [Example 165]
2 | 5 nM | COc1cnc2c(n1)OC[C@@H](C)N(C1CC3(C1)CN(S(=O)(=O)c1ccccc1F)C3)C2=O [Example 166]
3 | 7 nM | C[C@@H]1COc2c(cnn2C)C(=O)N1C1CC2(C1)CN(S(=O)(=O)c1ccccc1F)C2 [Example 170, (6R)-5-[2-(2-fluorophenyl)sulfonyl-2-azaspiro[3.3]heptan-6-yl]-1,6-dimethyl-6,7-dihydropyrazolo[4,3-f][1,4]oxazepin-4-one]
4 | 7 nM | C[C@@H]1COc2ncc(Br)cc2C(=O)N1C1CC2(C1)CN(S(=O)(=O)c1ccccc1F)C2 [Example 171]
5 | 110 nM | C[C@@H]1CCN2CCOC[C@@H]2C(=O)N1C1CC2(C1)CN(S(=O)(=O)c1ccccc1F)C2 [Example 172]
6 | 12 nM | Cc1nc2c(s1)C(=O)N(C1CC3(C1)CN(S(=O)(=O)c1ccccc1F)C3)[C@H](C)CO2 [Example 175]
7 | 12 nM | C[C@@H]1COc2nc(C(C)(F)F)sc2C(=O)N1C1CC2(C1)CN(S(=O)(=O)c1ccccc1F)C2 [Example 178]
8 | 4 nM | C[C@@H]1COc2nc(C3CC3)sc2C(=O)N1C1CC2(C1)CN(S(=O)(=O)c1ccccc1F)C2 [Example 180]
9 | 16 nM | Cc1cc2n(n1)CC[C@@H](C)N(C1CC3(C1)CN(S(=O)(=O)c1ccccc1F)C3)C2=O [Example 184]
10 | 24 nM | Cc1nn2c(c1C)C(=O)N(C1CC3(C1)CN(S(=O)(=O)c1ccccc1F)C3)[C@H](C)CC2 [Example 185]
11 | 21 nM | C[C@@H]1CCn2nc(Cl)cc2C(=O)N1C1CC2(C1)CN(S(=O)(=O)c1ccccc1F)C2 [Example 186]
12 | 20 nM | C[C@@H]1CCn2nc(C(C)(F)F)cc2C(=O)N1C1CC2(C1)CN(S(=O)(=O)c1ccccc1F)C2 [Example 187]
13 | 8 nM | C[C@@H]1CCn2nc(C3CC3)cc2C(=O)N1C1CC2(C1)CN(S(=O)(=O)c1ccccc1F)C2 [Example 188]
14 | 68 nM | C[C@H]1CCn2nc(C3CC3)cc2C(=O)N1C1CC2(C1)CN(S(=O)(=O)c1ccccc1F)C2 [Example 189]
15 | 11 nM | C[C@@H]1CCn2nc(C3(F)CC3)cc2C(=O)N1C1CC2(C1)CN(S(=O)(=O)c1ccccc1F)C2 [Example 190]
16 | 86 nM | C[C@H]1CCn2nc(C3(F)CC3)cc2C(=O)N1C1CC2(C1)CN(S(=O)(=O)c1ccccc1F)C2 [Example 191]
17 | 9 nM | C[C@@H]1CCn2nc(C3(C(F)(F)F)CC3)cc2C(=O)N1C1CC2(C1)CN(S(=O)(=O)c1ccccc1F)C2 [Example 192]
18 | 25 nM | C[C@@H]1CCn2nc(C(F)(F)F)cc2C(=O)N1C1CC2(C1)CN(S(=O)(=O)c1ccccc1F)C2 [Example 193]
19 | 36 nM | C[C@@H]1CCn2ncc(Cl)c2C(=O)N1C1CC2(C1)CN(S(=O)(=O)c1ccccc1F)C2 [Example 194]
20 | 35 nM | C[C@@H]1CCn2ncc(Br)c2C(=O)N1C1CC2(C1)CN(S(=O)(=O)c1ccccc1F)C2 [Example 195]
21 | 15 nM | C[C@@H]1CCn2nc(F)c(Br)c2C(=O)N1C1CC2(C1)CN(S(=O)(=O)c1ccccc1F)C2 [Example 196]

Further lines, the compound ahead of its results:

Row | SMILES | IC50
22 | C[C@@H]1COc2cc(N(C)CC3CCCCC3)ncc2C(=O)N1C1CC2(C1)CN(S(=O)(=O)c1ccccc1F)C2 [Example 138] | 1 nM
23 | C[C@@H]1COc2cc(N(C)Cc3ccccc3)ncc2C(=O)N1C1CC2(C1)CN(S(=O)(=O)c1ccccc1F)C2 [Example 139] | 2 nM
24 | C[C@@H]1COc2cc(Nc3ccc(F)cc3)ncc2C(=O)N1C1CC2(C1)CN(S(=O)(=O)c1ccccc1F)C2 [Example 140] | 1 nM
25 | C[C@@H]1COc2cc(N(C)c3ccc(F)cc3)ncc2C(=O)N1C1CC2(C1)CN(S(=O)(=O)c1ccccc1F)C2 [Example 141] | 1 nM
26 | C[C@@H]1COc2cc(N3CCCC3)ncc2C(=O)N1C1CC2(C1)CN(S(=O)(=O)c1ccccc1F)C2 [Example 142] | 1 nM
27 | C[C@@H]1COc2cc(N3CC[C@H](F)C3)ncc2C(=O)N1C1CC2(C1)CN(S(=O)(=O)c1ccccc1F)C2 [Example 143] | 1 nM
28 | C[C@@H]1COc2cc(N3CC[C@@H](F)C3)ncc2C(=O)N1C1CC2(C1)CN(S(=O)(=O)c1ccccc1F)C2 [Example 144] | 1 nM
29 | C[C@@H]1COc2cc(N3CC(F)(F)C(F)(F)C3)ncc2C(=O)N1C1CC2(C1)CN(S(=O)(=O)c1ccccc1F)C2 [Example 147] | 1 nM
30 | C[C@@H]1COc2cc(N3C[C@H]4C[C@H]4C3)ncc2C(=O)N1C1CC2(C1)CN(S(=O)(=O)c1ccccc1F)C2 [Example 148] | < 1 nM
31 | C[C@@H]1COc2cc(N3CCCCC3)ncc2C(=O)N1C1CC2(C1)CN(S(=O)(=O)c1ccccc1F)C2 [Example 149] | 1 nM
32 | C[C@@H]1COc2cc(N3CCCC[C@@H]3C)ncc2C(=O)N1C1CC2(C1)CN(S(=O)(=O)c1ccccc1F)C2 [Example 150] | 1 nM
33 | C[C@@H]1CCCCN1c1cc2c(cn1)C(=O)N(C1CC3(C1)CN(S(=O)(=O)c1ccccc1F)C3)[C@H](C)CO2 [Example 151] | 1 nM
34 | CC1CCN(c2cc3c(cn2)C(=O)N(C2CC4(C2)CN(S(=O)(=O)c2ccccc2F)C4)[C@H](C)CO3)CC1 [Example 153] | 1 nM
35 | COC1CCN(c2cc3c(cn2)C(=O)N(C2CC4(C2)CN(S(=O)(=O)c2ccccc2F)C4)[C@H](C)CO3)CC1 [Example 154] | 2 nM
36 | C[C@@H]1COc2cc(N3CCC(F)CC3)ncc2C(=O)N1C1CC2(C1)CN(S(=O)(=O)c1ccccc1F)C2 [Example 155] | 1 nM
37 | C[C@@H]1COc2cc(N3CCC(F)(F)CC3)ncc2C(=O)N1C1CC2(C1)CN(S(=O)(=O)c1ccccc1F)C2 [Example 156] | 2 nM
38 | C[C@@H]1COc2cc(N3CCCC(F)(F)C3)ncc2C(=O)N1C1CC2(C1)CN(S(=O)(=O)c1ccccc1F)C2 [Example 157] | 1 nM
39 | C[C@@H]1COc2cc(N3CCN(C)CC3)ncc2C(=O)N1C1CC2(C1)CN(S(=O)(=O)c1ccccc1F)C2 [Example 158] | 6 nM
40 | C[C@@H]1COc2cc(N3CCCCCC3)ncc2C(=O)N1C1CC2(C1)CN(S(=O)(=O)c1ccccc1F)C2 [Example 159] | 1 nM
41 | C[C@@H]1COc2cc(N3CCCOCC3)ncc2C(=O)N1C1CC2(C1)CN(S(=O)(=O)c1ccccc1F)C2 [Example 160] | 1 nM
42 | C[C@@H]1CNc2nc(N3C[C@H]4C[C@H]4C3)ccc2C(=O)N1C1CC2(C1)CN(S(=O)(=O)c1ccccc1F)C2 [Example 161] | 1 nM
43 | C[C@@H]1CNc2nc(N3CC[C@H](F)C3)ccc2C(=O)N1C1CC2(C1)CN(S(=O)(=O)c1ccccc1F)C2 [Example 162, (3R)-4-[2-(2-fluorophenyl)sulfonyl-2-azaspiro[3.3]heptan-6-yl]-8-[(3S)-3-fluoropyrrolidin-1-yl]-3-methyl-2,3-dihydro-H-pyrido[2,3-e][1,4]diazepin-5-one] | 2 nM
44 | COc1ccc2c(n1)OC[C@@H](C)N(C1CC3(C1)CN(S(=O)(=O)c1ccccc1F)C3)C2=O [Example 163, (3R)-4-[2-(2-fluorophenyl)sulfonyl-2-azaspiro[3.3]heptan-6-yl]-8-methoxy-3-methyl-2,3-dihydropyrido[3,2-f][1,4]oxazepin-5-one] | 8 nM
45 | COc1nc2c(cc1F)C(=O)N(C1CC3(C1)CN(S(=O)(=O)c1ccccc1F)C3)[C@H](C)CO2 [Example 167, (3R)-7-fluoro-4-[2-(2-fluorophenyl)sulfonyl-2-azaspiro[3.3]heptan-6-yl]-8-methoxy-3-methyl-2,3-dihydropyrido[3,2-f][1,4]oxazepin-5-one] | 16 nM
46 | C[C@@H]1COc2nc(N3CC[C@H](F)C3)ncc2C(=O)N1C1CC2(C1)CN(S(=O)(=O)c1ccccc1F)C2 [Example 169] | 1 nM
47 | C[C@@H]1COc2nc(C(F)F)sc2C(=O)N1C1CC2(C1)CN(S(=O)(=O)c1ccccc1F)C2 [Example 176] | 13 nM
48 | C[C@@H]1COc2nc(C3(F)CC3)sc2C(=O)N1C1CC2(C1)CN(S(=O)(=O)c1ccccc1F)C2 [Example 181] | 6 nM
49 | C[C@H]1COc2nc(C3(F)CC3)sc2C(=O)N1C1CC2(C1)CN(S(=O)(=O)c1ccccc1F)C2 [Example 182] | 154 nM
50 | C[C@@H]1COc2nc(C3(C(F)(F)F)CC3)sc2C(=O)N1C1CC2(C1)CN(S(=O)(=O)c1ccccc1F)C2 [Example 183] | 5 nM
